Source: patent US10149879B2 (priority 2014, dated 2018)

Experiments:
3T3-L1 cells [1] = experiment: Cell viability assay in 3T3-L1 cells; settings: for Cell viability: 3T3-L1, control 100.00
βTC6 insulinoma cell [2] = experiment: Anti-oxidant activity in βTC6 insulinoma cell challenged with H2O2; assay type: cell-based; design: Anti-oxidant activity, cells challenged with H2O2: unit not given here; settings: for Anti-oxidant activity, cells challenged with H2O2: βTC6
From the text: Anti-Oxidant Activity in βTC6 Insulinoma Cell Challenged with H2O2 Berberin and Quercetin—
Anti-Oxidant Activity in βTC6 Insulinoma Cell Challenged with H2O2 Berberin and Palmatine—

L6 cells = experiment: Anti-oxidant activity in L6 cells challenged with H2O2; assay type: cell-based; design: Anti-oxidant activity, cells challenged with H2O2: unit not given here; settings: for Anti-oxidant activity, cells challenged with H2O2: L6; for protection against H2O2 induced cellular oxidative damage: L6 cells
From the text: Anti-Oxidant Activity in L6 Cells Challenged with H2O2 Berberin and Palmatine
Anti-Oxidant Activity in L6 Cells Challenged with H2O2—Berberin and Quercetin

βTC6 insulinoma cell [3] = experiment: Cell viability assay in βTC6 insulinoma cell line; assay type: cell-based; settings: for Cell viability: βTC6, control 100.00
From the text: Cell Viability Assay in βTC6 Insulinoma Cell Lime Following—

3T3-L1 cells [4] = experiment: Anti-oxidant activity in 3T3-L1 cells challenged with H2O2; assay type: cell-based; design: Anti-oxidant activity, cells challenged with H2O2: scale not given here; settings: for Anti-oxidant activity, cells challenged with H2O2: 3T3-L1; for protection against H2O2 induced cellular oxidative damage: 3T3-L1 cells
From the text: Anti-Oxidant Activity in 3T3-L1 Cells Challenged with H2O2 Berberin and Palmatine
Anti-Oxidant Activity in 3T3-L1 Cells Challenged with H2O2 Berberin and Quercetin

[5] = system: nor-epinephrine, serotonin and dopamine in whole brain; settings: mice; acute administration 5 mg/kg ip; cited from earlier work
[6] = comparison with positive standard

Structure (SMILES): COc1ccc2cc3[n+](cc2c1OC)CCc1cc2c(cc1-3)OCO2 [Berberin]
- Cell viability (3T3-L1 cells [1]; 10 pM): 99.50 ± 1.50
- Cell viability (3T3-L1 cells [1]; 100 pM): 99.99 ± 2.80
- Cell viability (3T3-L1 cells [1]; 1 nM): 99.88 ± 0.91
- Cell viability (3T3-L1 cells [1]; 10 nM): 98.25 ± 1.20
- Cell viability (3T3-L1 cells [1]; 100 nM): 97.69 ± 1.09
- Cell viability (3T3-L1 cells [1]; 1 μM): 90.68 ± 2.05
- Cell viability (3T3-L1 cells [1]; 10 μM): 75.12 ± 2.85
- Cell viability (3T3-L1 cells [1]; 100 μM): 62.54 ± 4.20
- toxicity to the cell (3T3-L1 cells [1]; 3T3-L1 cells, 1 μM): non-toxic
- Anti-oxidant activity, cells challenged with H2O2 (βTC6 insulinoma cell [2]; Co-incubated, 1 pM, control 55.54): 54.53 ± 1.67
- Anti-oxidant activity, cells challenged with H2O2 (βTC6 insulinoma cell [2]; Co-incubated, 1 pg/ml, control 55.64): 59.70 ± 2.00
- Anti-oxidant activity, cells challenged with H2O2 (βTC6 insulinoma cell [2]; Co-incubated, 10 pM, control 55.54): 54.79 ± 2.95
- Anti-oxidant activity, cells challenged with H2O2 (βTC6 insulinoma cell [2]; Co-incubated, 10 pg/ml, control 55.64): 64.14 ± 2.04
- Anti-oxidant activity, cells challenged with H2O2 (βTC6 insulinoma cell [2]; Co-incubated, 100 pg/ml, control 55.64): 67.40 ± 1.43
- Anti-oxidant activity, cells challenged with H2O2 (βTC6 insulinoma cell [2]; Co-incubated, 0.1 nM, control 55.54): 56.02 ± 2.82
- Anti-oxidant activity, cells challenged with H2O2 (βTC6 insulinoma cell [2]; Co-incubated, 1 nM, control 55.54): 59.80 ± 1.30
- Anti-oxidant activity, cells challenged with H2O2 (βTC6 insulinoma cell [2]; Co-incubated, 1 ng/ml, control 55.64): 76.57 ± 1.50
- Anti-oxidant activity, cells challenged with H2O2 (βTC6 insulinoma cell [2]; Co-incubated, 10 nM, control 55.54): 60.75 ± 2.16
- Anti-oxidant activity, cells challenged with H2O2 (βTC6 insulinoma cell [2]; Co-incubated, 10 ng/ml, control 55.64): 85.90 ± 2.00
- Anti-oxidant activity, cells challenged with H2O2 (βTC6 insulinoma cell [2]; Pre-incubate, 1 pg/ml, control 55.64): 61.60 ± 2.00
- Anti-oxidant activity, cells challenged with H2O2 (βTC6 insulinoma cell [2]; Pre-incubate, 10 pg/ml, control 55.64): 65.18 ± 1.98
- Anti-oxidant activity, cells challenged with H2O2 (βTC6 insulinoma cell [2]; Pre-incubate, 100 pg/ml, control 55.64): 67.05 ± 2.45
- Anti-oxidant activity, cells challenged with H2O2 (βTC6 insulinoma cell [2]; Pre-incubate, 1 ng/ml, control 55.64): 74.40 ± 1.40
- Anti-oxidant activity, cells challenged with H2O2 (βTC6 insulinoma cell [2]; Pre-incubate, 10 ng/ml, control 55.64): 77.69 ± 2.10
- Anti-oxidant activity, cells challenged with H2O2 (βTC6 insulinoma cell [2]; Pre-incubated, 1 pM, control 55.54): 57.52 ± 0.80
- Anti-oxidant activity, cells challenged with H2O2 (βTC6 insulinoma cell [2]; Pre-incubated, 10 pM, control 55.54): 58.90 ± 2.87
- Anti-oxidant activity, cells challenged with H2O2 (βTC6 insulinoma cell [2]; Pre-incubated, 0.1 nM, control 55.54): 60.12 ± 3.40
- Anti-oxidant activity, cells challenged with H2O2 (βTC6 insulinoma cell [2]; Pre-incubated, 1 nM, control 55.54): 61.70 ± 1.60
- Anti-oxidant activity, cells challenged with H2O2 (βTC6 insulinoma cell [2]; Pre-incubated, 10 nM, control 55.54): 64.20 ± 1.65
- anti-oxidant activity (βTC6 insulinoma cell [2]; βTC6 cells challenged with hydrogen peroxide): potent anti-oxidant activity
- protection against H2O2 induced cellular oxidative damage (βTC6 insulinoma cell [2]; βTC6 insulinoma cells): Mild Protection
- Anti-oxidant activity, cells challenged with H2O2 (L6 cells; Co-incubated, 10 pM, control 60.10): 62.10 ± 4.40
- Anti-oxidant activity, cells challenged with H2O2 (L6 cells; Co-incubated, 10 pg/ml, control 61.10): 60.40 ± 2.20
- Anti-oxidant activity, cells challenged with H2O2 (L6 cells; Co-incubated, 100 pM, control 60.10): 63.97 ± 8.52
- Anti-oxidant activity, cells challenged with H2O2 (L6 cells; Co-incubated, 100 pg/ml, control 61.10): 66.12 ± 2.70
- Anti-oxidant activity, cells challenged with H2O2 (L6 cells; Co-incubated, 1 nM, control 60.10): 66.10 ± 5.67
- Anti-oxidant activity, cells challenged with H2O2 (L6 cells; Co-incubated, 1 ng/ml, control 61.10): 70.07 ± 2.95
- Anti-oxidant activity, cells challenged with H2O2 (L6 cells; Co-incubated, 10 nM, control 60.10): 69.40 ± 5.00
- Anti-oxidant activity, cells challenged with H2O2 (L6 cells; Co-incubated, 10 ng/ml, control 61.10): 75.14 ± 0.90
- Anti-oxidant activity, cells challenged with H2O2 (L6 cells; Co-incubated, 100 nM, control 60.10): 72.40 ± 3.03
- Anti-oxidant activity, cells challenged with H2O2 (L6 cells; Co-incubated, 100 ng/ml, control 61.10): 77.51 ± 1.70
- Anti-oxidant activity, cells challenged with H2O2 (L6 cells; Pre-incubated, 10 pM, control 60.10): 59.80 ± 6.60
- Anti-oxidant activity, cells challenged with H2O2 (L6 cells; Pre-incubated, 10 pg/ml, control 61.10): 63.50 ± 1.00
- Anti-oxidant activity, cells challenged with H2O2 (L6 cells; Pre-incubated, 100 pM, control 60.10): 60.40 ± 8.50
- Anti-oxidant activity, cells challenged with H2O2 (L6 cells; Pre-incubated, 100 pg/ml, control 61.10): 69.40 ± 2.00
- Anti-oxidant activity, cells challenged with H2O2 (L6 cells; Pre-incubated, 1 nM, control 60.10): 63.70 ± 7.25
- Anti-oxidant activity, cells challenged with H2O2 (L6 cells; Pre-incubated, 1 ng/ml, control 61.10): 71.12 ± 1.12
- Anti-oxidant activity, cells challenged with H2O2 (L6 cells; Pre-incubated, 10 nM, control 60.10): 68.60 ± 4.50
- Anti-oxidant activity, cells challenged with H2O2 (L6 cells; Pre-incubated, 10 ng/ml, control 61.10): 78.98 ± 1.90
- Anti-oxidant activity, cells challenged with H2O2 (L6 cells; Pre-incubated, 100 nM, control 60.10): 72.81 ± 5.70
- Anti-oxidant activity, cells challenged with H2O2 (L6 cells; Pre-incubated, 100 ng/ml, control 61.10): 83.70 ± 1.70
- protection against H2O2 induced cellular oxidative damage (L6 cells; [6]): potent protection
- protection against H2O2 induced cellular oxidative damage (L6 cells; pM-nM doses): mild protection
- Cell viability (βTC6 insulinoma cell [3]; 1 pM): 97.95 ± 1.12
- Cell viability (βTC6 insulinoma cell [3]; 10 pM): 96.99 ± 2.20
- Cell viability (βTC6 insulinoma cell [3]; 100 pM): 94.60 ± 2.45
- Cell viability (βTC6 insulinoma cell [3]; 1 nM): 90.89 ± 1.42
- Cell viability (βTC6 insulinoma cell [3]; 10 nM): 88.65 ± 2.60
- Cell viability (βTC6 insulinoma cell [3]; 100 nM): 86.30 ± 1.67
- Cell viability (βTC6 insulinoma cell [3]; 1 μM): 73.75 ± 2.90
- Cell viability (βTC6 insulinoma cell [3]; 10 μM): 67.89 ± 1.65
- toxicity to the cells (βTC6 insulinoma cell [3]; βTC6 insulinoma cells, 10 ng/ml): non-toxic
- Anti-oxidant activity, cells challenged with H2O2 (3T3-L1 cells [4]; Co-incubated, 10 pM, control 50.00): 56.00 ± 3.35
- Anti-oxidant activity, cells challenged with H2O2 (3T3-L1 cells [4]; Co-incubated, 10 pg/ml, control 49.00): 53.00 ± 2.50
- Anti-oxidant activity, cells challenged with H2O2 (3T3-L1 cells [4]; Co-incubated, 100 pM, control 50.00): 58.96 ± 1.20
- Anti-oxidant activity, cells challenged with H2O2 (3T3-L1 cells [4]; Co-incubated, 100 pg/ml, control 49.00): 57.80 ± 2.50
- Anti-oxidant activity, cells challenged with H2O2 (3T3-L1 cells [4]; Co-incubated, 1 nM, control 50.00): 61.80 ± 1.80
- Anti-oxidant activity, cells challenged with H2O2 (3T3-L1 cells [4]; Co-incubated, 1 ng/ml, control 49.00): 65.15 ± 1.99
- Anti-oxidant activity, cells challenged with H2O2 (3T3-L1 cells [4]; Co-incubated, 10 nM, control 50.00): 63.00 ± 1.60
- Anti-oxidant activity, cells challenged with H2O2 (3T3-L1 cells [4]; Co-incubated, 100 nM, control 50.00): 63.38 ± 2.10
- Anti-oxidant activity, cells challenged with H2O2 (3T3-L1 cells [4]; Co-incubated, 100 ng/ml (first of two lines so printed, r7), control 49.00): 70.80 ± 3.25
- Anti-oxidant activity, cells challenged with H2O2 (3T3-L1 cells [4]; Co-incubated, 100 ng/ml (second line, r8), control 49.00): 77.50 ± 2.95
- Anti-oxidant activity, cells challenged with H2O2 (3T3-L1 cells [4]; Pre-incubated, 10 pM, control 50.00): 52.01 ± 2.80
- Anti-oxidant activity, cells challenged with H2O2 (3T3-L1 cells [4]; Pre-incubated, 10 pg/ml, control 49.00): 55.00 ± 2.00
- Anti-oxidant activity, cells challenged with H2O2 (3T3-L1 cells [4]; Pre-incubated, 100 pM, control 50.00): 55.76 ± 2.80
- Anti-oxidant activity, cells challenged with H2O2 (3T3-L1 cells [4]; Pre-incubated, 100 pg/ml, control 49.00): 58.00 ± 1.70
- Anti-oxidant activity, cells challenged with H2O2 (3T3-L1 cells [4]; Pre-incubated, 1 nM, control 50.00): 59.95 ± 2.10
- Anti-oxidant activity, cells challenged with H2O2 (3T3-L1 cells [4]; Pre-incubated, 1 ng/ml, control 49.00): 64.00 ± 1.90
- Anti-oxidant activity, cells challenged with H2O2 (3T3-L1 cells [4]; Pre-incubated, 10 nM, control 50.00): 61.13 ± 1.05
- Anti-oxidant activity, cells challenged with H2O2 (3T3-L1 cells [4]; Pre-incubated, 100 nM, control 50.00): 64.25 ± 2.30
- Anti-oxidant activity, cells challenged with H2O2 (3T3-L1 cells [4]; Pre-incubated, 100 ng/ml (first of two lines so printed, r7), control 49.00): 67.40 ± 3.70
- Anti-oxidant activity, cells challenged with H2O2 (3T3-L1 cells [4]; Pre-incubated, 100 ng/ml (second line, r8), control 49.00): 75.00 ± 4.15
- protection against H2O2 induced cellular oxidative damage (3T3-L1 cells [4]; [6]): potent protection
- protection against H2O2 induced cellular oxidative damage (3T3-L1 cells [4]; pM-nM doses): mild protection
- increased level of dopamine in whole brain [5]: 31%
- increased level of nor-epinephrine in whole brain [5]: 31%
- increased level of serotonin in whole brain [5]: 47%
